Experiment: The compound was evaluated for time dependent inhibitory activity against Lipoprotein associated Phospholipase A2 (Lp-PLA2) enzyme after 10 min incubation; Inactive; call rule not given here

Row | IC50 | SMILES
1 | Not Active | CCCCCCCC(=O)OCCCCC#C/C=C1/OC(=O)N2CCC[C@@H]12
2 | Not Active | O=C1O/C(=C/C#CCCCCO)[C@@H]2CCCN12
3 | Not Active | CCCCCCCCCCCCCCC#C/C=C1/OC(=O)N2CCC[C@@H]12

Experiment: The compound was evaluated for time dependent inhibitory activity against Lipoprotein associated Phospholipase A2 (Lp-PLA2) enzyme after 10 min incubation.

Row | IC50 | SMILES
4 | 51 nM | CCCCCCCCCCC[C@H](CC(=O)NC(=O)/C=C1/OC(=O)N2CCCC12)O[C@@H]1O[C@@H](C)[C@H](O)[C@@H](O)[C@H]1O (stereo partly drawn)
5 | 25 nM | CCCCCCCCCCCCCCCCNC(=O)/C=C1/OC(=O)N2CCC[C@@H]12
6 | 12 nM | CCCCCCCCCCCCCCCCNC(=O)/C=C1/OC(=O)N2CCC[C@H]12
7 | 170 nM | CCCCCCCCCCCCNC(=O)/C=C1/OC(=O)N2CCC[C@@H]12
8 | 28 nM | CCCCCCCCCCCCCCNC(=O)/C=C1/OC(=O)N2CCC[C@@H]12
